The values below come from patent US4987132A, “Saturated heterocyclic carboxamide derivatives” (Yamanouchi Pharmaceutical Co., Ltd., priority 1987, dated 1991).

Holding throughout (format): cell-based, rabbit (Japan white, male)
Assay [1] has as its system platelet activating factor (PAF)-induced rabbit platelet aggregation in plasma. The assay is described as follows: PAF-induced platelet aggregation in rabbit platelet rich plasma. The protocol:
(§1) Method: Nine volumes of blood were drawn from the central ear artery of male rabbit (Japan white, 3 kg) directly into plastic syringe containing 1 volume of 3.8% sodium citrate. The blood was centrifuged at 270×g for 10 minutes at room temperature and the platelet rich plasma (PRP) was removed. The pellet was further centrifuged at 1,100×g for 15 minutes. The supernatant was used as platelet poor plasma (PPP). The platelet concentration was adjusted to 5×10^5 cells/μl with PPP. Platelet aggregation was measured by the method of G. V. R. Born and M. J. Cross [Journal of Physiology, 168, 178-195 (1963)] using a HEMA TRACER (Nikou Bio Science, Japan). Varying concentration of compounds were added to the PRP 2 minutes prior to PAF (10^-8 M). The extent of platelet aggregation was determined by the maximum change of light transmission, assigning the transmission of unstimulated PRP to be 0% and that of PPP to be as 100%. Percent inhibition with compound was calculated by dividing the percent aggregation in the presence of compound by that in the control, and then the IC50 values were calculated.

Assay [2] deals with platelet aggregation induced by ADP. The assay is described as follows: platelet aggregation induced by ADP. To be noted: ADP 3×10^-6 M; data not shown. The protocol: as §1, with “Varying concentration of compounds were added to the PRP 2 minutes prior to PAF (10^-8 M).” left out
Assay [3] concerns platelet aggregation induced by collagen. The assay is described as follows: platelet aggregation induced by collagen. To be noted: collagen 10 μg/ml; data not shown. As for the experimental part: as §1, with “Varying concentration of compounds were added to the PRP 2 minutes prior to PAF (10^-8 M).” left out
For assay [4], the system named is platelet aggregation induced by arachidonic acid. The assay is described as follows: platelet aggregation induced by arachidonic acid. To be noted: arachidonic acid 1×10^-4 M; data not shown. The protocol:
as §1, with “Varying concentration of compounds were added to the PRP 2 minutes prior to PAF (10^-8 M).” left out

Setting [5] is: Oryctolagus cuniculus, Platelet, Table 1, PAF 10^-8 M, compound added 2 minutes prior to PAF, rabbit PRP, read-out: IC50.
The mark [6] stands for this setting: Oryctolagus cuniculus, Platelet.
[7] abbreviates: Oryctolagus cuniculus, Platelet, PAF 10^-8 M, compound added 2 minutes prior to PAF, rabbit PRP, read-out: IC50 values.

Structures are written as SMILES. Structures can show the parent of a compound that is named as a salt. Where two headings read alike, the source gives them in different places.

By IC50 is commonly meant the concentration at which inhibition is half-maximal. For the compound `Cc1ccc(CNC(=O)C2CSC(c3cccnc3)N2)cc1` (stereo not shown) [Example 20, N-(p-Methylbenzyl)-2-(3-pyridyl)thiazolidine-4-carboxamide dihydrochloride], in assay [1] (setting [5]), the IC50 was determined as 800 nM.

In the case of `CN(Cc1ccccc1)C(=O)C1CSC(c2cccnc2)N1` (stereo not shown) [Example 22, N-benzyl-N-methyl-2-(3-pyridyl)thiazolidine-4-carboxamide dihydrochloride], in assay [1] (setting [5]), the IC50 stood at 790 nM. Same read-out and setting: in the case of `O=C(NCc1ccc(OCCCCc2ccccc2)cc1)C1CSC(c2cccnc2)N1` (stereo not shown) [Example 23, N-2-(3-pyridyl)thiazolidine-4-carboxamide dihydrochloride] it was 430 nM; in that of `CCCCCCCOc1ccc(CNC(=O)C2CSC(c3cccnc3)N2)cc1` (stereo not shown) [Example 24, N-(p-Heptyloxybenzyl)-2-(3-pyridyl)thiazolidine-4-carboxamide dihydrochloride], 250 nM; in that of `O=C(C1CSC(c2cccnc2)N1)N1CCN(c2ccccc2)CC1` (stereo not shown) [Example 32, trihydrochloride], 490 nM.

As for `O=C(NC1CCCCC1)C1CSC(c2cccnc2)N1` (stereo not shown) [Example 34, N-cyclohexyl-2-(3-pyridyl)thiazolidine-4-carboxamide dihydrochloride], in assay [1] (setting [6]), the IC50 was determined as 950 nM. With `O=C(C1CSC(c2cccnc2)N1)N1CCC(Cc2ccccc2)CC1` (stereo not shown) [Example 36, 4-benzyl-1-[2-(3-pyridyl)thiazolidin-4-ylcarbonyl]piperidine dihydrochloride], the IC50 in assay [1] (setting [5]) was determined as 860 nM. Regarding `O=C(C1CSC(c2cccnc2)N1)N1CCC(c2ccccc2)CC1` (stereo not shown) [Example 46, 4-phenyl-1-[2-(3-pyridyl)thiazolidin-4-ylcarbonyl]piperidine dihydrochloride], the IC50 in assay [1] (setting [5]) amounted to 650 nM. Still for that read-out and setting: in the case of `O=C(C1CSC(c2cccnc2)N1)N1CCN(Cc2ccccc2)CC1` (stereo not shown) [Example 48, 1-benzyl-4-[2(3-pyridyl)thiazolidin-4-ylcarbonyl]piperazine trihydrochloride] it was 450 nM. Regarding `Cl.Cl.Cl.O=C(C1CSC(c2cccnc2)N1)N1CCN(CCCCc2ccccc2)CC1` (stereo not shown) [Example 49, 1-(4-phenylbutyl)-4-[2-(3-pyridyl)thiazolidin-4-ylcarbonyl]piperazine trihydrochloride], in assay [2], the “inhibition of platelet aggregation induced by ADP” value (“inhibition … by ADP” below) was “did not inhibit”. Also, the “inhibition of platelet aggregation induced by collagen” value (“inhibition … by collagen” for short) in assay [3] was “did not inhibit”. Further, in assay [4], the “inhibition of platelet aggregation induced by arachidonic acid” value (shortened to “inhibition … by arachidonic acid”) is on record as “did not inhibit”. Besides, the figures for the IC50 in assay [1] (setting [7]) and in assay [1] (setting [5]) were 28 to 85 nM and 85 nM, respectively. For the compound `O=C(NNc1ccccc1)C1CSC(c2cccnc2)N1` (stereo not shown) [Example 50, N'-phenyl-2-(3-pyridyl)thiazolidine-4-carbohydrazide], the IC50 in assay [1] (setting [5]) worked out at 800 nM. In the case of `CC(C)CCOc1ccc(CNC(=O)C2CSC(c3cccnc3)N2)cc1` (stereo not shown) [Example 54, N-[p-(3-methylbutoxy)benzyl]-2-(3-pyridyl)thiazolidine-4-carboxamide dihydrochloride], the concentration for half-maximal inhibition (IC50) in assay [1] (setting [5]) amounted to 240 nM. The same measure, in the same setting: in the case of `CC(C)COc1ccc(CNC(=O)C2CSC(c3cccnc3)N2)cc1` (stereo not shown) [Example 55] it was 160 nM; in that of `CC(C)CCCOc1ccc(CNC(=O)C2CSC(c3cccnc3)N2)cc1` (stereo not shown) [Example 56], 120 nM. Same read-out and setting: in the case of `O=C(NCc1ccc(OCC2CCCC2)cc1)C1CSC(c2cccnc2)N1` (stereo not shown) [Example 57] it was 200 nM. On the same count and under the same terms, in the case of `O=C(NCc1ccc(OCCCc2ccccc2)cc1)C1CSC(c2cccnc2)N1` (stereo not shown) [Example 58] it was 390 nM; in that of `COc1cc(CNC(=O)C2CSC(c3cccnc3)N2)ccc1OCCCCc1ccccc1` (stereo not shown) [Example 59], 210 nM; in that of `O=C(NCc1ccc(OCCCOc2ccccc2)cc1)C1CSC(c2cccnc2)N1` (stereo not shown) [Example 60], 760 nM.

As to `CCCCc1ccc(CNC(=O)C2CSC(c3cccnc3)N2)cc1` (stereo not shown) [Example 61], the IC50 in assay [1] (setting [5]) was found to be 770 nM. Same read-out and setting: in the case of `Cc1ccc(CN2CCN(C(=O)C3CSC(c4cccnc4)N3)CC2)cc1` (stereo not shown) [Example 63] it was 500 nM; in that of `O=C(C1CSC(c2cccnc2)N1)N1CCN(CC=Cc2ccccc2)CC1` (stereo not shown) [Example 64], 390 nM. Same read-out and setting: in the case of `O=C(C1CSC(c2cccnc2)N1)N1CCN(CCCOc2ccccc2)CC1` (stereo not shown) [Example 65] it was 120 nM; in that of `O=C(CN1CCN(C(=O)C2CSC(c3cccnc3)N2)CC1)c1ccccc1` (stereo not shown) [Example 66], 430 nM. `O=C(CCCN1CCN(C(=O)C2CSC(c3cccnc3)N2)CC1)c1ccc(Br)cc1` (stereo not shown) [Example 67]: the “inhibition … by ADP” value in assay [2] was “did not inhibit”. Further, in assay [3], the “inhibition … by collagen” value was “did not inhibit”. Also, in assay [4], the “inhibition … by arachidonic acid” value is recorded as “did not inhibit”. In addition, the IC50 in assay [1] (setting [7]) was 28 to 85 nM; in assay [1] (setting [5]) it was 71 nM. For the compound `CCCCCCCN1CCN(C(=O)C2CSC(c3cccnc3)N2)CC1` (stereo not shown) [Example 71], the “inhibition … by ADP” value in assay [2] is recorded as “did not inhibit”. Also, in assay [3], the “inhibition … by collagen” value is given as “did not inhibit”. Besides, the “inhibition … by arachidonic acid” value in assay [4] is recorded as “did not inhibit”. The IC50 in assay [1] (setting [7]) is 28 to 85 nM; in assay [1] (setting [5]), 64 nM.

For the compound `O=C(C1CSC(c2cccnc2)N1)N1CCC(CCc2ccccc2)CC1` (stereo not shown) [Example 72], in assay [1] (setting [5]), the IC50 was 900 nM. The same measure, in the same setting: in the case of `O=C(C1CSC(c2cccnc2)N1)N1CCCN(Cc2ccccc2)CC1` (stereo not shown) [Example 76] it was 900 nM; in that of `CCCCCCCN1CCCN(C(=O)C2CSC(c3cccnc3)N2)CC1` (stereo not shown) [Example 80], 340 nM.

For `CCCCCCCCCCN1CCN(C(=O)C2CSC(c3cccnc3)N2)CC1` (stereo not shown) [Example 81, 1-decyl-4-[2-(3-pyridyl)thiazolidin-4-ylcarbonyl]piperazine trihydrochloride], the “inhibition … by ADP” value in assay [2] is “did not inhibit”. In assay [3], the “inhibition … by collagen” value is “did not inhibit”. In addition, in assay [4], the “inhibition … by arachidonic acid” value is recorded as “did not inhibit”. Further, the results for the IC50 in assay [1] (setting [7]) and in assay [1] (setting [5]) were 28 to 85 nM and 28 nM, respectively. Turning to `O=C(C1CSC(c2cccnc2)N1)N1CCN(CCc2ccccc2)CC1` (stereo not shown) [Example 84], the IC50 in assay [1] (setting [5]) was 220 nM.

Take `O=C(C1CSC(c2cccnc2)N1)N1CCN(CCCCCc2ccccc2)CC1` (stereo not shown) [Example 85]: the “inhibition … by ADP” value in assay [2] is recorded as “did not inhibit”. Also, in assay [3], the “inhibition … by collagen” value was “did not inhibit”. Moreover, the “inhibition … by arachidonic acid” value in assay [4] is given as “did not inhibit”. The half-inhibitory concentration (IC50) in assay [1] (setting [7]) was 28 to 85 nM; in assay [1] (setting [5]) it was 72 nM. For the compound `CN(Cc1ccc(OCCCc2ccccc2)cc1)C(=O)C1CSC(c2cccnc2)N1` (stereo not shown) [Example 89], the IC50 in assay [1] (setting [5]) was 400 nM. The same measure, in the same setting: in the case of `CCCCCCN1CCN(C(=O)C2CSC(c3cccnc3)N2)CC1` (stereo not shown) [Example 92] it was 260 nM.

For the compound `CC(C)CCCN1CCN(C(=O)C2CSC(c3cccnc3)N2)CC1` (stereo not shown) [Example 93], the half-inhibitory concentration (IC50) in assay [1] (setting [5]) is 630 nM. Still for that read-out and setting: in the case of `Cc1ncccc1C1NC(C(=O)N2CCN(CCCc3ccccc3)CC2)CS1` (stereo not shown) [Example 97] it was 120 nM. Turning to `CCCCCCN1CCN(C(=O)C2CSC(c3cccnc3)N2)CC1` (stereo not shown) [Example 117], in assay [1] (Table 1, PAF 10^-8 M, compound added 2 minutes prior to PAF, rabbit PRP, read-out: IC50), the IC50 turned out to be 260 nM. With `COc1ccc(CCCN2CCN(C(=O)C3CSC(c4cccnc4)N3)CC2)cc1` (stereo not shown) [Example 120], in assay [1] (setting [5]), the IC50 was 170 nM. Same read-out and setting: in the case of `O=C(C1CSC(c2cccnc2)N1)N1CCN(CCCc2ccc(O)cc2)CC1` (stereo not shown) [Example 121] it was 190 nM; in that of `O=C(C1CSC(c2cccnc2)N1)N1CCN(CCCc2ccc(Cl)cc2)CC1` (stereo not shown) [Example 123], 180 nM; in that of `O=C(C1CSC(c2cccnc2)N1)N1CCN(CCCc2ccc(F)cc2)CC1` (stereo not shown) [Example 124], 180 nM. On to `O=C(C1CSC(c2cccnc2)N1)N1CCN(CCCc2ccc([N+](=O)[O-])cc2[N+](=O)[O-])CC1` (stereo not shown) [Example 125], for which the IC50 in assay [1] (setting [6]) was determined as 450 nM.

`Nc1ccc(CCCN2CCN(C(=O)C3CSC(c4cccnc4)N3)CC2)cc1` (stereo not shown) [Example 126]: the IC50 in assay [1] (setting [5]) was determined as 180 nM.

Take `Cc1ccccc1CCCN1CCN(C(=O)C2CSC(c3cccnc3)N2)CC1` (stereo not shown) [Example 127]: the IC50 in assay [1] (setting [5]) amounted to 460 nM.

As for `N#Cc1ccc(CCCN2CCN(C(=O)C3CSC(c4cccnc4)N3)CC2)cc1` (stereo not shown) [Example 128], the IC50 in assay [1] (setting [5]) came to 970 nM.
